Measurements from US12582654B2, “Cyano-substituted pyridine and cyano-substituted pyrimidine compound and preparation method therefor and application thereof” (BEIJING SCITECH-MQ PHARMACEUTICALS LIMITED, priority 2019, dated 2026).

Tests used:
each subtype of FGFR = details: cited from earlier work
FGFR = details: cited from earlier work
[1] = tested on: FGF19 gene-amplified cells; details: cited from earlier work
[2] = mouse and monkey animal models; cited from earlier work
FGFR4 V550L kinase = FGFR4 V550L kinase (Homo sapiens, UniProt P22455, V550L); assay: Inhibition of FGFR4 V550L mutant kinase activity (ULight-labeled PolyGT, EU665/EU615 reading); format: biochemical; details: FGFR4 V550L kinase 1 nM, ATP 10 μM, enzymatic reaction 2 hours
FGFR4 V550L kinase, sequence (P22455 22-802 V550L): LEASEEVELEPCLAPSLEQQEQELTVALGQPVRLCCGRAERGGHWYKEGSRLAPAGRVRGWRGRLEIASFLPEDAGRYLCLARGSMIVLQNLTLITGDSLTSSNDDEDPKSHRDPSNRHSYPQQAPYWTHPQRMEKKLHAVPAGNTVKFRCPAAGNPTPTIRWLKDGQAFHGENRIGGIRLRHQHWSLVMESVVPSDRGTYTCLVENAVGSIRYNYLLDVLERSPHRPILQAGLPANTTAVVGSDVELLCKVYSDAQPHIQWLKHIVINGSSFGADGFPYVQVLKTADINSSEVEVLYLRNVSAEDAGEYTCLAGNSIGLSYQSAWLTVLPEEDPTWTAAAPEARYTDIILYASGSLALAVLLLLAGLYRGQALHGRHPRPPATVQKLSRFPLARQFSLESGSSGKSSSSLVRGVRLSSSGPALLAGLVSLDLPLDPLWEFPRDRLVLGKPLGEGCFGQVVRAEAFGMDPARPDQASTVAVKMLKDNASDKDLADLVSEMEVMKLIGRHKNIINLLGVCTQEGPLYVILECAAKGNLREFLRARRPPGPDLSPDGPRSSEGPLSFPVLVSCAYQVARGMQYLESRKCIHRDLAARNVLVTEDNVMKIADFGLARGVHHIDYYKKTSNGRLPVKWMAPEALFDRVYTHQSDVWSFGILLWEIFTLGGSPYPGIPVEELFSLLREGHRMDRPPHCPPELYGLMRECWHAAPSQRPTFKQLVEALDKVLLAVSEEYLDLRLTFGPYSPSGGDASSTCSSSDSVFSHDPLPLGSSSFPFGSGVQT
Method in brief: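 TR-FRET kinase assay: 1 nM FGFR4 V550L, 10 μM ATP, 100 nM ULight-PolyGT substrate, 2 h at room temperature after 5 min compound–enzyme preincubation, 1% DMSO. Compound tested as 11-point 3-fold dilution from 2.5 μM to 0.042 nM final. Signal as EU665/EU615 ratio; IC50 fitted from % inhibition.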

[3] = molecular target: T1, Ba/F3 ETV6-FGFR4-V550L cells (Homo sapiens, UniProt P22455, V550L, cells depend on it); assay: Inhibition of cell proliferation (CCK-8), Ba/F3 ETV6-FGFR4-V550L cells; format: cell-based; details: 72 hours of incubation, read-out: Ba/F3 ETV6-FGFR4-V550L IC50
T1 construct: fused on or other part: N-terminal part of ETV6 (TEL), the oligomerising partner of the fusion; already named as the first entry; P41212 (Transcription factor ETV6)
T1 sequence (P22455 whole entry V550L, the tested form may be a part): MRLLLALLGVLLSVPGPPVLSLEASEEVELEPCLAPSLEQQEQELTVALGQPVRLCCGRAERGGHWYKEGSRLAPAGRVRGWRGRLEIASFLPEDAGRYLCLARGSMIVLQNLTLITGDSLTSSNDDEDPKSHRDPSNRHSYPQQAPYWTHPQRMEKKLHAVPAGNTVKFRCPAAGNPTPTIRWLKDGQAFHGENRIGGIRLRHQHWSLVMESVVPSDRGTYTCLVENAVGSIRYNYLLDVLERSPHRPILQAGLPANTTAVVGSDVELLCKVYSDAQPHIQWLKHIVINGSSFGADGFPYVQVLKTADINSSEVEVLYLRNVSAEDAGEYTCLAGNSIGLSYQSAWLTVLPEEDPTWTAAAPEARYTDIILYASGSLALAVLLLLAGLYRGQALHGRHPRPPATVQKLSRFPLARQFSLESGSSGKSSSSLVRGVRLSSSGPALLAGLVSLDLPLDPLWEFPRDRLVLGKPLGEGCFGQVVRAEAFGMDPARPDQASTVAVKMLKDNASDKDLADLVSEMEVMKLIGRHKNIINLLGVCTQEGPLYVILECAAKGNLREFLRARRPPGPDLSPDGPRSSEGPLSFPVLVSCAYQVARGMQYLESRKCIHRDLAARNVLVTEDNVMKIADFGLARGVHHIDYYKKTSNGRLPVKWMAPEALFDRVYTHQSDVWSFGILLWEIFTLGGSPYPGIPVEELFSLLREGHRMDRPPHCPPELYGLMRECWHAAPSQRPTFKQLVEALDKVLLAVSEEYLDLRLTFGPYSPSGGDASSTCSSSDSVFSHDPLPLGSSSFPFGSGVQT
Method in brief: (§1)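 Ba/F3 cells expressing ETV6-FGFR4 or ETV6-FGFR4-V550L exposed for 72 h to 9 concentrations from 4-fold serial dilution (0.25% DMSO final). Viability by CCK-8, OD 450 nm after 1–2 h at 37 °C, relative to untreated and cell-free blanks; IC50 from curve fitting.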

Ba/F3 ETV6-FGFR4 cells = molecular target: T2, Ba/F3 ETV6-FGFR4 cells (Homo sapiens, UniProt P22455); assay: Inhibition of cell proliferation (CCK-8), Ba/F3 ETV6-FGFR4 cells; format: cell-based; details: 72 hours of incubation, read-out: Ba/F3 ETV6-FGFR4 IC50
T2 construct: fused on or other part: N-terminal part of ETV6 (TEL), the oligomerising partner that makes the FGFR4 kinase constitutively active; P41212 (Transcription factor ETV6)
T2 sequence (P22455 whole entry, change not shown, the tested form may be a part): as the sequence (P22455 whole entry V550L, the tested form may be a part) above, with L550V counted along it
Method in brief: as §1

FGFR4 kinase = FGFR4 kinase (Homo sapiens, UniProt P22455); assay: Inhibition of FGFR4 kinase activity (ULight-labeled JAK-1 peptide, EU665/EU615 reading); format: biochemical; details: FGFR4 kinase 3.85 nM, ATP 100 μM, enzymatic reaction 2 hours
FGFR4 kinase, sequence (P22455 22-802): as the sequence (P22455 22-802 V550L) above, with L529V counted along it
Method in brief: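 TR-FRET kinase assay using 3.85 nM FGFR4, 100 μM ATP and 100 nM ULight-JAK-1 (Tyr1023) peptide; 5 min enzyme–compound preincubation, then 2 h at room temperature. Compounds at 11 3-fold dilutions from 2.5 μM down to 0.042 nM, 1% DMSO. IC50 from EU665/EU615 ratio inhibition curves.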

Row | Structure (SMILES) | enzymatic inhibitory activity against each subtype of FGFR (each subtype of FGFR) | FGFR inhibitory activity (FGFR) | antitumor activity against FGF19 gene-amplified cells [1] | bile acid-related adverse effects [2] | IC50 (FGFR4 V550L kinase) | GI50 [3] | GI50 (Ba/F3 ETV6-FGFR4 cells) | IC50 (FGFR4 kinase)
1 | C=CC(=O)N1CCN(CCCn2c(=O)c(-c3c(Cl)c(OC)cc(OC)c3Cl)cc3cnc(NC)nc32)CC1 [PRN-1371] | nanomolar levels |  |  |  |  |  |  | 
2 | CCN(CC)CCCCNc1ncc2cc(-c3cc(OC)cc(OC)c3)c(NC(=O)NC(C)(C)C)nc2n1 [PD173074] |  | nanomolar inhibitory activity |  |  |  |  |  | 
3 | C=CC(=O)Nc1cc(N2CCN(CC)CC2)ccc1Nc1cc(N(C)C(=O)Nc2c(Cl)c(OC)cc(OC)c2Cl)ncn1 [Example H3B6527] |  |  | strong antitumor activity | without bile acid-related adverse effects |  |  |  | 
4 | C=CC(=O)Nc1cc(N2CCN(CC)CC2)ccc1Nc1ncc(C#N)c(Nc2ccc(C3CC3)cc2OC(C)C)n1 [Example 36, N-(2-((5-cyano-4-((4-cyclopropyl-2-isopropoxyphenyl)amino)pyrimidin-2-yl)amino)-5-(4-ethylpiperazin-1-yl)phenyl) acrylamide] |  |  |  |  | 10 to 50 nM | 10 to 50 nM | 10 to 50 nM | 10 to 50 nM
5 | C=CC(=O)Nc1cc(N2CCC(N(C)CCCOC)CC2)ccc1Nc1ncc(C#N)c(Nc2ccccc2OC(C)C)n1 [Example 69, N-(2-((5-cyano-4-((2-isopropoxyphenyl)amino)pyrimidin-2-yl)amino)-5-(4-((3-methoxypropyl) (methyl)amino)piperidin-1-yl)phenyl) acrylamide] |  |  |  |  | ≤ 10 nM | ≤ 10 nM | ≤ 10 nM | ≤ 10 nM
6 | C=CC(=O)Nc1cc(N2CCC(N3CCN(C)CC3)CC2)ccc1Nc1ncc(C#N)c(Nc2ccccc2S(=O)(=O)C(C)C)n1 [Example 80, N-(2-((5-cyano-4-((2-(isopropylsulfonyl)phenyl)amino)pyrimidin-2-yl)amino)-5-(4-(4-methylpiperazin-1-yl)piperidin-1-yl)phenyl) acrylamide] |  |  |  |  | ≤ 10 nM | ≤ 10 nM | ≤ 10 nM | ≤ 10 nM
7 | C=CC(=O)Nc1cc(N2CCN(CC)CC2)ccc1Nc1ncc(C#N)c(Nc2ccc(C)cc2OC(C)C)n1 [Example 30, N-(2-((5-cyano-4-((2-isopropoxy-4-methylphenyl)amino)pyrimidin-2-yl)amino)-5-(4-ethylpiperazin-1-yl)phenyl) acrylamide] |  |  |  |  | ≤ 10 nM | ≤ 10 nM | ≤ 10 nM | 10 to 50 nM
8 | C=CC(=O)Nc1cc(N2CCN(CC)CC2)ccc1Nc1ncc(C#N)c(Nc2ccc(F)cc2OC(C)C)n1 [Example 27, N-(2-((5-cyano-4-((4-fluoro-2-isopropoxyphenyl)amino)pyrimidin-2-yl)amino)-5-(4-ethylpiperazin-1-yl)phenyl) acrylamide] |  |  |  |  | ≤ 10 nM | ≤ 10 nM | ≤ 10 nM | ≤ 10 nM
